These results are taken from patent US20240116889A1, “ANTIVIRAL COMPOUNDS AND METHODS” (priority 2019, published 2024).

For data set [1], the system named is USSR H1N1 virus. It counts as cell-based, influenza A virus (A/USSR/77).
Another data set has as its system SARS-CoV-2. Kind of data set: SARS-CoV-2 replication in Calu-3 cells (RT-qPCR of media). In kind it is cell-based.
The test system of data set [2] is USSR H1N1 virus. Nature of the data set: USSR H1N1 replication in A549 cells (M-gene RNA, RT-qPCR). It counts as cell-based, influenza A virus (A/USSR/77).
Data set [3] deals with RSV. Nature of the data set: RSV replication in A549 cells (pfu/ml by immunostaining). In kind it is cell-based, human respiratory syncytial virus. Particulars: 30 min TG priming, 72 h infection. The procedure: FIG. 37—Pre- and post-infection priming with TG 24 h inhibited RSV replication. […] (A) In pre-infection, cells primed with TG or control DMSO, washed with PBS, cultured in fresh media for 24 h and infected with RSV at 0.1 MOI for 2 h followed by media replacement with fresh DMEM containing 2% FCS. (B) In post-infection, cells were first infected similarly for 24 h, then primed with TG or DMSO for 30 min, washed with PBS and replaced with fresh media. In both treatment groups (A and B), cells were infected for a total period of 72 h, after which spun supernatants were used to determine progeny virus output (pfu/ml) on HEp2 cells by immunostaining with mouse anti-RSV (F27) antibody. HEp2 cells were more permissive to RSV replication than A549 cells. (C) Comparison of TG and ribavirin (Riba) in the inhibition of RSV replication. HEp-2 cells were primed with TG, Riba or control DMSO as indicated for 30 min, rinsed with PBS and infected with RSV. Riba was continuously present during infection. Four days post-infection, media were sampled for the detection of viral M-gene RNA by one-step reverse transcription-qPCR. Unless otherwise indicated, significance (based on one-way ANOVA with Tukey's multiple comparison test) is relative to DMSO control.

The subject of data set [4] is RSV. Particulars: human bronchial epithelial cell line; TG 0.1 uM for 24 h before infection; cited from earlier work.
The nature of data set [5]: Tolerability of TG given to mice by oral gavage. The note with it: 1 mg/kg.

Turning to `C/C=C(/C)C(=O)O[C@H]1C(C)=C2[C@H]([C@@H]1OC(=O)CCCCCCC)[C@@](C)(OC(C)=O)C[C@H](OC(=O)CCC)[C@@]1(O)[C@H]2OC(=O)[C@@]1(C)O` [TG, thapsigargin], the “progeny virus output vs DMSO control” value in the data set with USSR H1N1 virus [1] is recorded as “marked reduction in virus output”. Besides, the “progeny virus output” value in the data set on USSR H1N1 virus [1] (NHBE cells, 5 nM TG for 30 min) is given as “dramatic reduction in progeny virus output”. In addition, in the data set with USSR H1N1 virus [1] (NHBE cells, 0.01 μM TG 30 min, […]), the “virus production, TG before vs 6 h after infection” value is listed as “comparable reduction in virus production”. Besides, the “Selectivity index (CC50/IC50)” value with USSR H1N1 virus [1] (NHBE cells, 30 min priming, […]) is 8572.89. Besides, the IC50 in the data set on USSR H1N1 virus [1] (NHBE cells, 30 min priming, […], read-out: USSR virus inhibitory concentration IC50) came out at 3.91 nM. In the data set on SARS-CoV-2, the “SARS-CoV-2, separate infection and co-infection with pdm 2009 H1N1” value is “blocked”; the “SARS-CoV-2 replication, post-infection priming” value was “just as effective in virus inhibition as pre-infection TG priming”. In addition, the “SARS-CoV-2 replication” value with SARS-CoV-2 (Calu-3 cells, […], HC primed and continuously present) was “highly inhibitory”. The “USSR H1N1, separate infection and co-infection with hCoV OC43” value in the data set with USSR H1N1 virus [2] is given as “blocked”. Moreover, in the data set on USSR H1N1 virus [2] (A549 cells, TG 30 min priming vs continuous RDV), the “blocking of USSR H1N1 replication, comparison with RDV” value was “superior to remdesivir (RDV)”. Further, the “RSV replication, priming 24 h before or 24 h post-infection” value in the data set with RSV [3] was “strongly inhibited RSV replication”. In addition, the “RSV replication by RT-PCR” value with RSV [4] is reported as “did not show reduction in virus replication”. Moreover, the “clinical adverse effects” value in data set [5] is recorded as “no detectable clinical adverse effects”.
